The results in this text go back to ChEMBL document CHEMBL1208675, “Validated QSAR analysis of some diaryl substituted pyrazoles as CCR2 inhibitors by various linear and nonlinear multivariate chemometrics methods” (Eur J Med Chem, 2010).

SMILES strings stand for the structures.

In the test the target is C-C chemokine receptor type 2 (Homo sapiens, UniProt P41597). Briefly: Inhibition of CCR2.
Sequence of C-C chemokine receptor type 2 (P41597 whole entry): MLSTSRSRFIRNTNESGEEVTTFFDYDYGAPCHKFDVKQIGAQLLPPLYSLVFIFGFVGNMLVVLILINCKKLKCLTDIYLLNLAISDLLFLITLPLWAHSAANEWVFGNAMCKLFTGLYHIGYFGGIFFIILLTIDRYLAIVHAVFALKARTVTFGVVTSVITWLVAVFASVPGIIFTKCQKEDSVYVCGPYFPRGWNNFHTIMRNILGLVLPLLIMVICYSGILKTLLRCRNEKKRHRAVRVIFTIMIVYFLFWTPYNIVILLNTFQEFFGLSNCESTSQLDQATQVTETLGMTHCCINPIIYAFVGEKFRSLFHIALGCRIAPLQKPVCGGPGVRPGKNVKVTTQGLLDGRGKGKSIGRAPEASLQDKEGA
As to `O=C(CCc1cc(-c2cc(Cl)cc(Cl)c2)nn1-c1ccc2ccccc2c1)NCCCc1ccncc1`, half-maximal inhibition (IC50) required 1.12 µM.

`CN(C)CCCCNC(=O)CCc1cc(-c2cc(Cl)cc(Cl)c2)nn1-c1ccc2ccccc2c1` had an IC50 of 1.8 µM.

On to `COC(=O)[C@H](Cc1cnc[nH]1)NC(=O)CCc1cc(-c2cc(Cl)cc(Cl)c2)nn1-c1ccc2ccccc2c1`, for which the IC50 was 2.84 µM.

`CCN(CC)CCCC(C)NC(=O)CCCc1cc(-c2cc(Cl)cc(Cl)c2)nn1-c1ccc2ccccc2c1` (centres undefined) showed an IC50 of 6.47 µM.

Take `O=C(CCc1cc(-c2cc(Cl)cc(Cl)c2)nn1-c1ccc2ccccc2c1)NCCCc1ccc2c(n1)NCCC2`: the IC50 is 9.33 µM.

In the case of `COC(=O)[C@H](CCCN=C(N)N)NC(=O)CCNCc1cc(-c2cc(Cl)cc(Cl)c2)nn1-c1ccc2ccccc2c1`, inhibition was half-maximal at 0.043 µM (IC50).

In turn, `CCN(CC)C(C)CCCNC(=O)CCc1cc(-c2cc(Cl)cc(Cl)c2)nn1-c1ccc2ccccc2c1` (centres undefined) gave an IC50 of 0.108 µM.

Take `CCN(CC)CCCCNC(=O)CCc1cc(-c2cc(Cl)cc(Cl)c2)nn1-c1ccc2ccccc2c1`: the IC50 was 1.22 µM.

On to `CCCCC(CCCN(CC)CC)NC(=O)CCOc1cc(-c2cc(Cl)cc(Cl)c2)nn1-c1ccc2ccccc2c1` (centres undefined), for which 0.052 µM corresponded to half-maximal inhibition (IC50). Compared with the last compound, the IC50 is about 23-fold lower.

The IC50 is the point on the concentration scale where inhibition reaches its midpoint.
